Results on ten molecules are retold here after ChEMBL document CHEMBL1201862, “PubChem BioAssay data set” (2004).

Test systems include IGROV-1; RPMI-8226; A498; SF-268; UACC-62; LOX IMVI; A549; LXFL 529; CCRF-CEM; OVCAR-8; SK-OV-3; SNB-78; OVCAR-4; SW-620; UO-31; RXF 393; HCT-15; Hs-578T; T47D; MDA-MB-231.
Common to all, as to experiment: NCI-60 cell line screen, 48 h

The structures appear in SMILES notation.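 Cultured in 96-well plates, cells were exposed to test compound for 48 hours across five concentrations. GI50 is the concentration that inhibits growth by half.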 Active and inactive are the calls of the source. No stated cut-off is given here; in the data, active = GI50 up to about 1.1 µM and inactive = higher. Bounds are passed on as bounds.

In the case of `O=C1c2c(c(-c3ccccc3)c(-c3ccccc3)c(-c3ccccc3)c2-c2ccccc2)C(=O)N1c1cccc(Br)c1`, the GI50 with IGROV-1, with RPMI-8226, with A498, with SF-268, in the assay with UACC-62 and in the assay on LOX IMVI was > 100 µM (inactive) throughout. Further, the GI50 in the assay with A549, with LXFL 529, in the assay on CCRF-CEM, in the assay on OVCAR-8, in the assay on SK-OV-3 and in the assay on SNB-78 was > 100 µM (inactive) in each case. In addition, the GI50 in the assay on OVCAR-4 was > 100 µM (inactive); in the assay on SW-620, > 100 µM (inactive); with UO-31 it was > 100 µM (inactive); in the assay with RXF 393 it was > 100 µM (inactive); in the assay on HCT-15 it was more than 100 µM.

As for `CC(=O)Nc1ccc(-c2nnc(SCC(=O)Nc3ccc(Cl)cc3)o2)cc1`, the GI50 was 12.2 µM (inactive) in the assay with IGROV-1; 6.89 µM (inactive) with RPMI-8226; 14.8 µM (inactive) in the assay on A498; 4.53 µM (inactive) in the assay with SF-268; 4.89 µM (inactive) with UACC-62; 5.33 µM (inactive) in the assay on LOX IMVI. The GI50 in the assay on A549 was 16.8 µM (inactive); in the assay on LXFL 529, 8.97 µM (inactive); with CCRF-CEM, 3.5 µM (inactive); in the assay on OVCAR-8, 12.5 µM (inactive); in the assay on SK-OV-3, 16.4 µM (inactive); in the assay on SNB-78, 46.2 µM (inactive). Besides, the GI50 in the assay on OVCAR-4 was 13.1 µM (inactive); in the assay with SW-620 it was 6.21 µM (inactive); in the assay on UO-31, 14.4 µM (inactive); in the assay with RXF 393, 10 µM (inactive); with HCT-15, 13.9 µM.

`CC(C)(c1ccccc1)c1ccc(Oc2ccc3c(c2)-c2nc-3nc3[nH]c(nc4nc(nc5[nH]c(n2)c2ccc(Oc6ccc(C(C)(C)c7ccccc7)cc6)cc52)-c2cc(Oc5ccc(C(C)(C)c6ccccc6)cc5)ccc2-4)c2ccc(Oc4ccc(C(C)(C)c5ccccc5)cc4)cc32)cc1`: the GI50 in the assay with IGROV-1, with RPMI-8226, in the assay on A498, in the assay with UACC-62, in the assay with LOX IMVI and with A549 was > 100 µM (inactive) in each case. Further, the GI50 in the assay with LXFL 529, in the assay on CCRF-CEM, with OVCAR-8, with SK-OV-3, with SNB-78 and in the assay with SW-620 was > 100 µM (inactive) in each case. The GI50 with UO-31 was > 100 µM (inactive); in the assay with RXF 393 it was 23.9 µM (inactive).

As to `O=C(/C=C/c1ccccc1O)c1ccccc1Cl`, the GI50 in the assay with IGROV-1 is 32.6 µM (inactive); in the assay with A498, 90.4 µM (inactive); in the assay with SF-268 it was 44.5 µM (inactive); with UACC-62, 67.5 µM (inactive); in the assay on LOX IMVI, 24.9 µM (inactive); with A549, > 100 µM (inactive). In addition, the GI50 was 30.5 µM (inactive) with LXFL 529; 19.3 µM (inactive) in the assay with CCRF-CEM; 58.6 µM (inactive) in the assay with OVCAR-8; 45.8 µM (inactive) in the assay on SK-OV-3; 47.2 µM (inactive) in the assay on SNB-78; 19.2 µM (inactive) with OVCAR-4. The GI50 is 35.5 µM (inactive) with SW-620, 52.4 µM (inactive) in the assay on UO-31, 43.1 µM (inactive) in the assay on RXF 393 and 28.6 µM with HCT-15.

`COc1c2c(c(OC)c3c(=O)cc(C/C(=N/NC(=O)C[n+]4ccccc4)C(=O)Nc4cc(C)ccc4C)oc13)OCO2`: the GI50 in the assay on IGROV-1, in the assay with RPMI-8226, in the assay with A498, in the assay on SF-268, with UACC-62 and in the assay with LOX IMVI was > 100 µM (inactive) in each case. Further, the GI50 in the assay on A549, with LXFL 529, in the assay on CCRF-CEM, in the assay on OVCAR-8, in the assay with SK-OV-3 and in the assay on SNB-78 was > 100 µM (inactive) throughout. For the same molecule, the GI50 was > 100 µM (inactive) in the assay on OVCAR-4; > 100 µM (inactive) with SW-620; > 100 µM (inactive) in the assay with UO-31; > 100 µM (inactive) in the assay with RXF 393; more than 100 µM in the assay with HCT-15.

As for `COc1cc(OC)c2c(c1)C(=O)C(CC(C)O)=CC2=O` (stereo unspecified), the GI50 in the assay with IGROV-1 is 18.2 µM (inactive); with RPMI-8226, 11.5 µM (inactive); in the assay with A498 it was 17.8 µM (inactive); with SF-268, 18.2 µM (inactive); in the assay with UACC-62 it was 11.8 µM (inactive); in the assay on LOX IMVI, 5.97 µM (inactive). In addition, the GI50 in the assay with A549 was 22.3 µM (inactive); with LXFL 529 it was 13.2 µM (inactive); with CCRF-CEM, 4.22 µM (inactive); with OVCAR-8 it was 15.7 µM (inactive); with SK-OV-3, 18 µM (inactive); in the assay with SNB-78, 15.3 µM (inactive). Also, the GI50 was 17.8 µM (inactive) with OVCAR-4; 17.8 µM (inactive) with SW-620; 16.3 µM (inactive) with UO-31; 12.7 µM (inactive) with RXF 393; 14.6 µM in the assay with HCT-15.

Take `COc1c(CC(C)=O)ccc2c1C(=O)c1ccc(C=O)c(OC(C)=O)c1C2=O`: the GI50 was 18.9 µM (inactive) in the assay on IGROV-1; 8.45 µM (inactive) in the assay with RPMI-8226; 27.3 µM (inactive) with A498; 4.38 µM (inactive) with SF-268; 4.55 µM (inactive) in the assay with UACC-62; 14.3 µM (inactive) in the assay with LOX IMVI. Moreover, the GI50 was 31.8 µM (inactive) in the assay with A549; 5.53 µM (inactive) in the assay on LXFL 529; 3.23 µM (inactive) in the assay with CCRF-CEM; 9.51 µM (inactive) with OVCAR-8; 55.5 µM (inactive) in the assay on SK-OV-3; 18.2 µM (inactive) in the assay with SNB-78. The GI50 in the assay on OVCAR-4 was 14.6 µM (inactive); with SW-620 it was 12.6 µM (inactive); with UO-31, 20.4 µM (inactive); in the assay with RXF 393, 4.09 µM (inactive); in the assay with HCT-15, 5.57 µM.

As to `CCN1C(=O)C(=CN)C(=O)N(CC)C1=O`, the GI50 in the assay with IGROV-1, in the assay on A498, in the assay on SF-268, in the assay with UACC-62, with LOX IMVI and with A549 was > 100 µM (inactive) each time. Besides, the GI50 with LXFL 529, in the assay with CCRF-CEM, in the assay on OVCAR-8, in the assay with SK-OV-3, in the assay with SNB-78 and in the assay with OVCAR-4 was > 100 µM (inactive) each time. In addition, the GI50 in the assay on SW-620 was > 100 µM (inactive); in the assay on UO-31 it was 58.2 µM (inactive); in the assay with RXF 393 it was > 100 µM (inactive); with HCT-15 it was more than 100 µM.

Regarding `Clc1ccc(OCc2nnc3n2N=C(c2ccc(Br)cc2)CS3)cc1`, the GI50 was 30.3 µM (inactive) in the assay with RPMI-8226; 5.36 µM (inactive) in the assay on A498; 27.1 µM (inactive) with UACC-62; 3.74 µM (inactive) in the assay with LOX IMVI; 25.5 µM (inactive) with A549; 15.2 µM (inactive) in the assay on LXFL 529. Besides, the GI50 with CCRF-CEM is > 100 µM (inactive); with OVCAR-8, 15.9 µM (inactive); in the assay with SK-OV-3, 15 µM (inactive); in the assay on SNB-78 it was 21.5 µM (inactive); in the assay on OVCAR-4, 7.89 µM (inactive); with SW-620, 32.7 µM (inactive). In addition, the GI50 in the assay with UO-31 was 2.8 µM (inactive); in the assay with RXF 393, 12.1 µM (inactive); with HCT-15, 51.3 µM.

With `CC1=C(N2CC2)C(=O)c2nc3n(c2C1=O)CCC3OC(=O)CCl` (stereo unspecified), the GI50 in the assay with IGROV-1 is 0.19 µM (active); with Hs-578T, 0.0279 µM (active); in the assay with RPMI-8226 it was 0.0955 µM (active); in the assay on A498 it was 0.061 µM (active); in the assay with SF-268, 0.0498 µM (active); with UACC-62, 0.0356 µM (active). Further, the GI50 in the assay with LOX IMVI is 0.0354 µM (active); in the assay on A549 it was 0.0593 µM (active); in the assay with LXFL 529, 0.0776 µM (active); in the assay on T47D it was 1.11 µM (active); in the assay with CCRF-CEM, 0.181 µM (active); in the assay with OVCAR-8 it was 0.0452 µM (active). The GI50 with SK-OV-3 was 0.0705 µM (active); in the assay on SNB-78, 0.193 µM (active); in the assay with OVCAR-4 it was 0.0719 µM (active); in the assay on SW-620, 0.0316 µM (active); with UO-31, 0.0483 µM (active); in the assay on RXF 393, 0.0338 µM (active). In addition, the GI50 is 0.0194 µM in the assay on HCT-15 and 1.91 µM (inactive) in the assay with MDA-MB-231.
